Results reported in article PMC8508980, “Design, Synthesis and Anticancer Profile of New 4-(1H-benzo[d]imidazol-1-yl)pyrimidin-2-amine-Linked Sulfonamide Derivatives with V600EBRAF Inhibitory Effect” (International Journal of Molecular Sciences, 2021).

Key:
Assay in all cases: NCI 60 cell line screen
[1] = tested on: 786-0; assay type: cell-based; conditions: Homo sapiens; 786-0, Renal Cancer; read-out: Percent growth
How it was run: (§1)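 Read-out was SRB staining of TCA-fixed cells at 515 nm, with growth computed against time-zero (Tz) and untreated control plates; TGI was taken where Ti = Tz. Drugs were tested at five concentrations up to 10 µM for 48 h at 37 °C, added 24 h after plating in RPMI 1640/5% FBS.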

[2] = tested on: DU-145; assay type: cell-based; conditions: Homo sapiens; DU-145, Prostate Cancer; read-out: Percent growth
How it was run: as §1

[3] = tested on: HCT-116; assay type: cell-based; conditions: Homo sapiens; HCT-116, Colon Cancer; read-out: Percent growth
How it was run: as §1

[4] = tested on: MDA-MB-435; assay type: cell-based; conditions: Homo sapiens; MDA-MB-435, Melanoma; read-out: Percent growth
How it was run: as §1

[5] = tested on: OVCAR-3; assay type: cell-based; conditions: Homo sapiens; OVCAR-3, Ovarian Cancer; read-out: Percent growth
How it was run: as §1

[6] = tested on: SF-268; assay type: cell-based; conditions: Homo sapiens; SF-268, CNS-Cancer; read-out: Percent growth
How it was run: as §1

[7] = tested on: SK-MEL-28; assay type: cell-based; conditions: Homo sapiens; SK-MEL-28, Melanoma; read-out: Percent growth
How it was run: as §1

[8] = tested on: SK-OV-3; assay type: cell-based; conditions: Homo sapiens; SK-OV-3, Ovarian Cancer; read-out: Percent growth
How it was run: as §1

[9] = tested on: SNB-19; assay type: cell-based; conditions: Homo sapiens; SNB-19, CNS-Cancer; read-out: Percent growth
How it was run: as §1

[10] = tested on: CAKI-1; assay type: cell-based, human; conditions: for activity at 10 µM: Homo sapiens, CAKI-1, Renal Cancer, read-out: Percent growth
Description: (§2) Anticancer profiling over a panel of 60 cancer cell lines was carried out at the National Cancer Institute (NCI), Bethesda, Maryland, USA, https://dtp.cancer.gov/discovery_development/nci-60/methodology.htm (Last visit 22 September 2021), using the standard procedure (detailed procedure is located in the Supplementary Information page 50 s).
(§3) NCI standard procedure for 60 cell lines assay
(§4) The human tumor cell lines of the cancer screening panel are grown in RPMI 1640 mediu m containing 5% fetal bovine serum and 2 mM L-glutamine. For a typical screening experiment, cells are inoculated into 96 well microtiter plates in 100 μL at plating densities ranging from 5,000 to 40,000 cells/well depending on the doubling time of individual cell lines. After cell inoculation, the microtiter plates are incubated at 37° C, 5 % CO2, 95 % air and 100 % relative humidity for 24 h prior to addition of experimental drugs.
(§5) After 24 h, two plates of each cell line are fixed in situ with TCA, to represent a measurement of the cell population for each cell line at the time of drug addition (Tz). Experimental drugs are solubilized in dimethyl sulfoxide at 400-fold the desired final maximum test concentration (10 µM) and stored frozen prior to use. At the time of drug addition, an aliquot of frozen concentrate is thawed and diluted to twice the desired final maximum test concentration with co mp lete medium containing 50 μg/ml gentamicin. Additional four, 10-fold or ½ log serial dilutions are made to provide a total of five drug concentrations plus control. Aliquots of 100 μl of these different drug dilutions are added to the appropriate microtiter wells already containing 100 μl of medium, resulting in the required final drug concentrations.
(§6) Following drug addition, the plates are incubated for an additional 48 h at 37°C, 5 % CO2, 95 % air, and 100 % relative humidity. For adherent cells, the assay is terminated by the addition of cold TCA. Cells are fixed in situ by the gentle addition of 50 μl of cold 50 % (w/v) TCA (final concentration, 10 % TCA) and incubated for 60 minutes at 4°C. The supernatant is discarded, and the plates are washed five times with tap water and air dried. Sulforhodamine B (SRB) solution (100 μl) at 0.4 % (w/v) in 1 % acetic acid is added to each well, and plates are incubated for 10 minutes at room temperature. After staining, unbound dye is removed by washing five times with 1 % acetic acid and the plates are air dried. Bound stain is subsequently solubilized with 10 mM trizma base, and the absorbance is read on an automated plate reader at a wavelength of 515 nm. For suspension cells, the methodology is the same except that the assay is terminated by fixing settled cells at the bottom of the wells by g ently adding 50 μl of 80 % TCA (final concentration, 16 % TCA). Using the seven absorbance measurements [time zero, (Tz), control growth, (C), and test growth in the presence of drug at the five concentration levels (Ti)], the percentage growth is calculated at each of the drug concentrations levels. Percentage growth inhibition is calculated as:
(§7) [(Ti-Tz)/(C-Tz)] x 100 for concentrations for which Ti>/=Tz
(§8) [(Ti-Tz)/Tz] x 100 for concentrations for which Ti<Tz.
(§9) Three dose response parameters are calculated for each experimental agent. Growth inhibition of […]
(§10) resulting in a 50% reduction in the net protein increase (as measured by SRB staining) in control cells during the drug incubation. The drug concentration resulting in total growth inhibition […]
(§11) (TGI) is calculated from Ti = Tz.

[11] = tested on: HT29; assay type: cell-based, human; conditions: for activity at 10 µM: Homo sapiens, HT-29, HT29, Colon Cancer, read-out: Percent growth
Description: as §2, §3, §4, §5, §6, §7, §8, §9, §10, §11

[12] = tested on: K-562; assay type: cell-based, human; conditions: for activity at 10 µM: Homo sapiens, K562, K-562, Leukemia, read-out: Percent growth
Description: as §2, §3, §4, §5, §6, §7, §8, §9, §10, §11

[13] = tested on: KM12; assay type: cell-based, human; conditions: Homo sapiens; KM12, Colon Cancer; read-out: Percent growth
Description: as §2, §3, §4, §5, §6, §7, §8, §9, §10, §11

[14] = tested on: MDA-MB-468; assay type: cell-based, human; conditions: for activity at 10 µM: Homo sapiens, MDA-MB-468, Breast Cancer, read-out: Percent growth
Description: as §2, §3, §4, §5, §6, §7, §8, §9, §10, §11

[15] = tested on: MOLT-4; assay type: cell-based, human; conditions: for activity at 10 µM: Homo sapiens, MOLT-4, Leukemia, read-out: Percent growth; for percent inhibition: MOLT-4, NCI-60 heat map analysis
Description: as §2, §3, §4, §5, §6, §7, §8, §9, §10, §11

[16] = tested on: NCI-H226; assay type: cell-based, human; conditions: for activity at 10 µM: Homo sapiens, NCI-H226, Non-Small Cell Lung Cancer, read-out: Percent growth; for percent inhibition: NCI-H226, NCI-60 heat map analysis
Description: as §2, §3, §4, §5, §6, §7, §8, §9, §10, §11

[17] = tested on: NCI-H23; assay type: cell-based, human; conditions: Homo sapiens; NCI-H23, Non-Small Cell Lung Cancer; read-out: Percent growth
Description: as §2, §3, §4, §5, §6, §7, §8, §9, §10, §11

[18] = tested on: NCI/ADR-RES; assay type: cell-based, human; conditions: Homo sapiens, Ovarian Cancer, read-out: Percent growth
Description: as §2, §3, §4, §5, §6, §7, §8, §9, §10, §11

[19] = tested on: OVCAR-4; assay type: cell-based, human; conditions: Homo sapiens; OVCAR-4, Ovarian Cancer; read-out: Percent growth
Description: as §2, §3, §4, §5, §6, §7, §8, §9, §10, §11

[20] = tested on: SK-MEL-5; assay type: cell-based, human; conditions: for activity at 10 µM: Homo sapiens, SK-MEL-5, Melanoma, read-out: Percent growth; for percent inhibition: SK-MEL-5, NCI-60 heat map analysis
Description: as §2, §3, §4, §5, §6, §7, §8, §9, §10, §11

[21] = tested on: U251; assay type: cell-based, human; conditions: Homo sapiens, U-251; U251, CNS-Cancer; read-out: Percent growth
Description: as §2, §3, §4, §5, §6, §7, §8, §9, §10, §11

SMILES | activity at 10 µM [1] [%] | activity at 10 µM [2] [%] | activity at 10 µM [3] [%] | activity at 10 µM [4] [%] | activity at 10 µM [5] [%] | activity at 10 µM [6] [%] | activity at 10 µM [7] [%] | activity at 10 µM [8] [%] | activity at 10 µM [9] [%] | activity at 10 µM [10] [%] | activity at 10 µM [11] [%] | activity at 10 µM [12] [%] | activity at 10 µM [13] [%] | activity at 10 µM [14] [%] | activity at 10 µM [15] [%] | activity at 10 µM [16] [%] | activity at 10 µM [17] [%] | activity at 10 µM [18] [%] | activity at 10 µM [19] [%] | activity at 10 µM [20] [%] | other results
O=S(=O)(NCCCNc1nccc(-n2cnc3ccccc32)n1)c1ccc(Br)cc1 [12k, N-(3-((4-(1H-benzo [d]imidazol-1-yl)pyrimidin-2-yl)amino)propyl)-4-bromo benzenesulfonamide] | 91.7 | 96.5 | 90.3 | 92.6 | 104 | 91.2 | 102 | 109 | 98.6 | 84.5 | 103 | 73.5 | 68.3 | 70.7 | 64.9 | 80.2 | 92.8 | 88.9 | 72.1 | 53.5 | percent inhibition [20]: 40%; activity at 10 µM [21]: 96.6%
O=S(=O)(NCCCNc1nccc(-n2cnc3ccccc32)n1)c1ccccc1 [12h, N-(3-((4-(1H-benzo [d]imidazol-1-yl)pyrimidin-2-yl)amino)propyl)benzenesulfonamide] | 98.8 | 99.2 | 90.3 | 95.5 | 106 | 91.7 | 105 | 105 | 103 | 87.4 | 101 | 79.5 | 71 | 68.8 | 77.2 | 81 | 91.8 | 86.2 | 74.5 | 60.2 | percent inhibition [20]: 40%; activity at 10 µM [21]: 98.2%
Cc1ccc(S(=O)(=O)NCCNc2nccc(-n3cnc4ccccc43)n2)cc1 [12g, N-(2-((4-(1H-benzo [d]imidazol-1-yl)pyrimidin-2-yl)amino)ethyl)-4-methyl benzenesulfonamide] | 85.4 | 89.3 | 64.1 | 84.1 | 82 | 68.8 | 94.4 | 79.5 | 86.8 | 57.5 | 90.2 | 56.1 | 77.4 | 51 | 55.3 | 58.7 | 74.6 | 75.7 | 42.1 | 20.8 | percent inhibition ([14]; MDA-MB-468, NCI-60 heat map analysis): 49%; percent inhibition [15]: around 45%; percent inhibition [16]: around 40%; percent inhibition [20]: 80%; activity at 10 µM [21]: 85.2%
O=S(=O)(NCCCNc1nccc(-n2cnc3ccccc32)n1)c1cccc2ccccc12 [12n, N-(3-((4-(1H-benzo [d]imidazol-1-yl)pyrimidin-2-yl)amino)propyl)naphthalene-1-sulfonamide] | 91.2 | 94.5 | 75.9 | 93.4 | 96.8 | 86.8 | 103 | 92.5 | 94.2 | 60.5 | 96.3 | 67.6 | 79.8 | 76.2 | 67 | 77.8 | 91.3 | 81.1 | 66.7 | 58.8 | percent inhibition ([12]; K-562, NCI-60 heat map analysis): around 30%; percent inhibition [15]: around 30%; percent inhibition [20]: 40%; activity at 10 µM [21]: 90.8%
O=S(=O)(NCCCNc1nccc(-n2cnc3ccccc32)n1)c1ccc(C(F)(F)F)cc1 [12l, N-(3-((4-(1H-benzo [d]imidazol-1-yl)pyrimidin-2-yl)amino)propyl)-4-(trifluoromethyl) benzenesulfonamide] | 77.2 | 83.5 | 65.6 | 72.1 | 81.2 | 66.5 | 103 | 80.3 | 83.4 | 51.4 | 54.6 | 33.9 | 51.7 | 52.7 | 38.4 | 57.6 | 82.5 | 55.8 | 53 | 29.9 | percent inhibition ([10]; CAKI-1, NCI-60 heat map analysis): 49%; percent inhibition ([11]; HT29, NCI-60 heat map analysis): more than 40%; percent inhibition [16]: around 40%; percent inhibition [20]: 70%; activity at 10 µM [21]: 73.2%
